# Results reported in publication PMC3008316 (Antiviral research, 2009).
# Read-outs that look alike come from different tables or passages of the source.
# Experiments:
# [1] = test system: PTV, Adames strain; set-up: species or system Syrian hamsters; details: hamster, in vivo
# [2] = test system: PTV, Adames strain; set-up: species or system C57BL/6 mice; details: mouse, in vivo
# [3] = test system: PICV, strain An 4763; format: in vivo, Syrian hamsters
# [4] = test system: phleboviruses (RVFV, PTV, SFNV); test: organism not typed; format: cell-based
# [5] = test system: RVFV vaccine strain MP-12
# [6] = test system: RVFV vaccine strain MP-12; remark: listed apart in the source
# [7] = test system: PTV, Adames strain
# [8] = test system: PTV, Adames strain; remark: listed apart in the source
# [9] = test system: Sandfly fever virus, Naples strain (SFNV)
# [10] = test system: Sandfly fever virus, Naples strain (SFNV); remark: listed apart in the source
# [11] = test system: Tacaribe virus (TCRV), strain TRVL 11573
# [12] = test system: Tacaribe virus (TCRV), strain TRVL 11573; remark: listed apart in the source
# [13] = test system: Junin virus (JUNV) vaccine strain Candid 1
# [14] = test system: Junin virus (JUNV) vaccine strain Candid 1; remark: listed apart in the source
# [15] = test system: PICV, strain An 4763
# [16] = test system: PICV, strain An 4763; remark: listed apart in the source
# [17] = rats; ref Y. Furuta, unpublished data; cited from earlier work
# [18] = in vitro; details: monkey, CC50 ± SD
# [19] = in vitro; details: monkey, CC50 ± SD; remark: listed apart in the source
# [20] = test system: RVFV vaccine strain MP-12; test: microbe, parasite or virus in culture; details: Rift Valley fever virus, Vero 76, read-out: EC50 ± SD (CPER)
# [21] = test system: RVFV vaccine strain MP-12; test: microbe, parasite or virus in culture; details: Rift Valley fever virus, Vero 76, read-out: EC90 ± SD (VYR)
# [22] = test system: PTV, Adames strain; test: microbe, parasite or virus in culture; details: Punta Toro virus, Vero 76, read-out: EC50 ± SD (CPER)
# [23] = test system: PTV, Adames strain; test: microbe, parasite or virus in culture; details: Punta Toro virus, Vero 76, read-out: EC90 ± SD (VYR)
# [24] = test system: Sandfly fever virus, Naples strain (SFNV); test: microbe, parasite or virus in culture; details: sandfly fever Sicilian virus, Vero 76, read-out: EC50 ± SD (CPER)
# [25] = test system: Sandfly fever virus, Naples strain (SFNV); test: microbe, parasite or virus in culture; details: sandfly fever Sicilian virus, Vero 76, read-out: EC90 ± SD (VYR)
# [26] = test system: Tacaribe virus (TCRV), strain TRVL 11573; test: microbe, parasite or virus in culture; details: Mammarenavirus tacaribeense, Vero 76, read-out: EC50 ± SD (CPER)
# [27] = test system: Tacaribe virus (TCRV), strain TRVL 11573; test: microbe, parasite or virus in culture; details: Mammarenavirus tacaribeense, Vero 76, read-out: EC90 ± SD (VYR)
# [28] = test system: Junin virus (JUNV) vaccine strain Candid 1; test: microbe, parasite or virus in culture; details: Mammarenavirus juninense, Vero, read-out: EC50 ± SD (CPER)
# [29] = test system: Junin virus (JUNV) vaccine strain Candid 1; test: microbe, parasite or virus in culture; details: Mammarenavirus juninense, Vero, read-out: EC90 ± SD (VYR)
# [30] = test system: PICV, strain An 4763; test: microbe, parasite or virus in culture; details: Pichinde virus, Vero, read-out: EC50 ± SD (CPER)
# [31] = test system: PICV, strain An 4763; test: microbe, parasite or virus in culture; details: Pichinde virus, Vero, read-out: EC90 ± SD (VYR)
# [32] = hamster, in vivo, po, 25 mg/kg/day
# [33] = hamster, in vivo, po, 50 mg/kg/day
# [34] = hamster, in vivo, po, 100 mg/kg/day
compound,measurement,setting,value
"NC(=O)c1nccn([C@@H]2O[C@H](CO)[C@@H](O)[C@H]2O)c1=O [T-1106, 3,4-dihydro-3-oxo-4-β-D-ribofuranosyl-2-pyrazinecarboxamide]",ED50 (survival),[1],12 µmol/kg/day
same,"Mean virus titer ± SD, liver",[1],< 4.3 ± 2.1 (40)
same,Potency relative to T-705 based on ED50,[1],9.4 times
same,Survival compared to placebo,[1],Significant protection
same,ALT ± SD,"[1]; po, 25 mg/kg/day",251 ± 438 international units per liter
same,"Mean virus titer ± SD, liver","[1]; po, 25 mg/kg/day",< 4.6 ± 1.7 (80)
same,"Mean virus titer ± SD, serum","[1]; po, 25 mg/kg/day",< 4.8 ± 2.9 (60)
same,"Percentage of animals with detectable virus, liver","[1]; po, 25 mg/kg/day",< 4.6 ± 1.7 (80) %
same,"Percentage of animals with detectable virus, serum","[1]; po, 25 mg/kg/day",< 4.8 ± 2.9 (60) %
same,ALT ± SD,"[1]; po, 50 mg/kg/day",802 ± 1149 international units per liter
same,"Mean virus titer ± SD, liver","[1]; po, 50 mg/kg/day",< 4.9 ± 1.5 (80)
same,"Mean virus titer ± SD, serum","[1]; po, 50 mg/kg/day",< 3.9 ± 2.2 (40)
same,"Percentage of animals with detectable virus, liver","[1]; po, 50 mg/kg/day",< 4.9 ± 1.5 (80) %
same,"Percentage of animals with detectable virus, serum","[1]; po, 50 mg/kg/day",< 3.9 ± 2.2 (40) %
same,ALT ± SD,"[1]; po, 100 mg/kg/day",446 ± 959 international units per liter
same,"Mean virus titer ± SD, serum","[1]; po, 100 mg/kg/day",< 3.6 ± 2.6 (40)
same,"Percentage of animals with detectable virus, liver","[1]; po, 100 mg/kg/day",< 4.3 ± 2.1 (40) %
same,"Percentage of animals with detectable virus, serum","[1]; po, 100 mg/kg/day",< 3.6 ± 2.6 (40) %
same,ED50 (survival),[2],201 µmol/kg/day
same,"Survival compared to placebo, log-rank analysis","[3]; hamster, in vivo, 100 mg/kg/day",failed to significantly protect
same,ED50 (survival),"[3]; hamster, in vivo, po",441 µmol/kg/day
same,ALT ± SD,[3]; [32],1354 ± 961 international units per liter
same,"Mean virus titer ± SD, liver",[3]; [32],7.7 ± 0.6 (100)
same,"Mean virus titer ± SD, serum",[3]; [32],6.5 ± 1.1 (100)
same,"Percentage of animals with detectable virus, liver",[3]; [32],7.7 ± 0.6 (100) %
same,"Percentage of animals with detectable virus, serum",[3]; [32],6.5 ± 1.1 (100) %
same,"Mean virus titer ± SD, liver",[3]; [33],7.1 ± 1.5 (100)
same,"Mean virus titer ± SD, serum",[3]; [33],< 5.4 ± 2.1 (80)
same,"Percentage of animals with detectable virus, liver",[3]; [33],7.1 ± 1.5 (100) %
same,"Percentage of animals with detectable virus, serum",[3]; [33],< 5.4 ± 2.1 (80) %
same,ALT ± SD,[3]; [34],961 ± 1071 international units per liter
same,"Mean virus titer ± SD, liver",[3]; [34],7.4 ± 0.4 (100)
same,"Mean virus titer ± SD, serum",[3]; [34],6.5 ± 1.0 (100)
same,"Percentage of animals with detectable virus, liver",[3]; [34],7.4 ± 0.4 (100) %
same,"Percentage of animals with detectable virus, serum",[3]; [34],6.5 ± 1.0 (100) %
same,Survival outcome,[3]; n=10,4 of the 10
same,Animals protected (survival),"[3]; n=10, 25 mg/kg/day",20%
same,Animals protected (survival),"[3]; n=10, 50 mg/kg/day",40%
same,Greater sensitivity of RVFV to inhibitory activity,[4],~ 5 times
same,"Inhibitory concentrations, range",[4],76 to 743 µM
same,EC50,"[4]; read-out: EC50 values, range (CPE reduction assay)",111 to 743 µM
same,EC90,"[4]; read-out: EC90 values, range (VYR)",76 to 576 µM
same,SI (CC50/EC50),[5],>33
same,SI (CC50/EC90),[6],>25
same,SI (CC50/EC50),[7],>5
same,SI (CC50/EC90),[8],>6
same,SI (CC50/EC50),[9],>24
same,SI (CC50/EC90),[10],>49
same,SI (CC50/EC50),[11],>6
same,SI (CC50/EC90),[12],>13
same,SI (CC50/EC50),[13],>29
same,SI (CC50/EC90),[14],>33
same,SI (CC50/EC50),[15],>24
same,SI (CC50/EC90),[16],>21
same,Liver tissue:plasma ratio relative to T-705,[17],~ 50 fold
same,CC50,[18],> 3720 µM
same,CC50,[19],> 3720 µM
same,EC50,[20],111 ± 58 µM
same,EC90,[21],146 ± 129 µM
same,EC50,[22],743 ± 297 µM
same,EC90,[23],576 ± 450 µM
same,EC50,[24],152 ± 13 µM
same,EC90,[25],76 ± 15 µM
same,EC50,[26],619 ± 205 µM
same,EC90,[27],296 ± 273 µM
same,EC50,[28],128 ± 44 µM
same,EC90,[29],114 ± 28 µM
same,EC50,[30],154 ± 39 µM
same,EC90,[31],173 ± 93 µM
